Results published in patent publication US20230218630A1, “COMBINATION OF ALCAFTADINE AND A CORTICOSTEROID” (priority 2020, published 2023).

What was measured:
[1] = Nasal irritation and histopathology of nasal epithelium in rabbits; type: in vivo, male New Zealand white rabbits; conditions: intranasal, doses of 0.312 mg, 0.625 mg and 1.25 mg, all three groups
Protocol: (§1) The study was carried out on total 24 male New Zealand white rabbits, which were segregated into four groups (G1 to G4, 6 rabbits/group). Mild anaesthesia was induced in all rabbits by inhalation of 2% isoflurane. Three groups (G1-G3) of anaesthetized rabbits were intranasally administered 250 μL of alcaftadine once-daily using the formulations of Examples 10A, 10B, and 10C. A comparator, 250 μL of olopatadine at a concentration of 0.6% w/v, was intranasally administered once-daily to a fourth group G4 of anaesthetized rabbits.
The animals were euthanized by intravenous administration of sodium thiopental injection overdose and nasal epithelium was collected. […] The remaining half of the tissues were stored in 10% neutral buffered formalin for detailed gross histopathological examination such as necrosis, inflammation or any changes during necropsy.

H1 receptors = H1 receptors (Homo sapiens, UniProt P35367); conditions: compared to azelastine and olapatadine; cited from earlier work
H2 receptors = H2 receptors (Homo sapiens, UniProt P25021); conditions: compared to azelastine and olapatadine; cited from earlier work
Chain of H2 receptors (P25021 whole entry): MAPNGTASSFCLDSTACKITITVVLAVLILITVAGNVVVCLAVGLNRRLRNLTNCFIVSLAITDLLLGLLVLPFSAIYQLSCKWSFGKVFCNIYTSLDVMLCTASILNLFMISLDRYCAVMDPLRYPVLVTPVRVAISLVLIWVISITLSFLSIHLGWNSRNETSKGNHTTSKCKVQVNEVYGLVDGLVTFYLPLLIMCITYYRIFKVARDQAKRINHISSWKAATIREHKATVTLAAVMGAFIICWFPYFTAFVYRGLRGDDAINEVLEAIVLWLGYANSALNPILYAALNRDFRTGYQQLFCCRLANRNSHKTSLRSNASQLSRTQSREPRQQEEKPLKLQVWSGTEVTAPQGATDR

[2] = Pharmacokinetics after intranasal administration in rabbits; conditions: for Tmax: male, New Zealand white, rabbit, plasma, inhaled or intranasal
Protocol: The pharmacokinetic profiles of the alcaftadine test formulations 4A, 4B, and 4C as well as an olapatdine nasal formulation were each determined on 6 male New Zealand white rabbits.
as §1
Sampling details for the test and reference formulations: Approximately 0.5 mL of blood sample from each rabbit was withdrawn via marginal ear vein into pre-labelled Eppendorf tubes containing 10% EDTA as an anticoagulant. Blood samples were withdrawn at 0 min, 5 min, 10 min, 15 min, 30 min, 60 min, 120 min, 240 min, 480 min and 1440 min after administration of test and reference formulations.
Procedure for sample preparation: Collected blood samples were mixed gently and kept on crushed ice. Plasma samples were separated after centrifugation at 3500 rpm for 10 min at 4° C. Plasma separation was carried out within 30 min of sample collection and stored at −70±10° C. The animals were euthanized by intravenous administration of sodium thiopental injection overdose and nasal epithelium was collected. Half of the tissues of nasal epithelium were homogenized using phosphate buffered solution (20% homogenation) for quantification of alcaftadine and olopatidine. The remaining half of the tissues were stored in 10% neutral buffered formalin for detailed gross histopathological examination such as necrosis, inflammation or any changes during necropsy.
Rabbit plasma and nasal epithelial tissue concentrations of alcaftadine or olopatidine were determined using a fit-for-purpose LC-MS/MS method with LLOQ of 0.500 ng/mL or 0.250 ng/mL, respectively. The pharmacokinetic parameters were evaluated using Phoenix WinNonlin® Ent-Version 8.0 by non-compartmental analysis.

[3] = single administration, doses of 0.625 to 1.25 mg

Chain of H1 receptors (P35367 whole entry): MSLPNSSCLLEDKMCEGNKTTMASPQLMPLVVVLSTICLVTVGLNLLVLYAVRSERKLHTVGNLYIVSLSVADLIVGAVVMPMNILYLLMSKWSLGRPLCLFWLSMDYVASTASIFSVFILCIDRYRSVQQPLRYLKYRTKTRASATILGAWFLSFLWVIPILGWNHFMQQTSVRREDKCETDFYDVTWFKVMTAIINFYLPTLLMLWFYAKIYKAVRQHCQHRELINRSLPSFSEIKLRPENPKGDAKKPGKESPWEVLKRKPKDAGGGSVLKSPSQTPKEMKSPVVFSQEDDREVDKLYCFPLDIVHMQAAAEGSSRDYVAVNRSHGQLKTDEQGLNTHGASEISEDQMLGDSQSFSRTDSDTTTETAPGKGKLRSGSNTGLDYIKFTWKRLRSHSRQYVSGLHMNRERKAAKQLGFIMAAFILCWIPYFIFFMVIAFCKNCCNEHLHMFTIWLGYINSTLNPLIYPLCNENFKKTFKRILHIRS

Question: What does the source list for `CN1CCC(=C2c3ccccc3CCn3c(C=O)cnc32)CC1` [Alcaftadine, 6,11-dihydro-11-(1-methyl-4-piperidinylidene)-5H-imidazo[2,1-b][3]benzazepine-3-carboxaldehyde]?
Answer: signs or symptoms of inflammation or irritation [1]: no signs or symptoms of inflammation or irritation were observed; binding affinity to H1 receptors (H1 receptors): higher binding affinity; binding affinity to H2 receptors (H2 receptors): higher binding affinity; plasma concentration / systemic exposure ([2]; intranasal, rabbits): dose proportional with overall low systemic exposure; Tmax ([2]; 0.312 mg): 4.8 min; Tmax ([2]; 0.625 mg): 4.8 min; Tmax ([2]; 1.25 mg): 4.8 min; area under the curve (AUC0-24h) [2, 3]: dose proportional; peak plasma concentrations (Cmax) [2, 3]: dose proportional
